Earlier results as cited in patent US10759826B2, “15β-substituted estrone derivatives as selective inhibitors of 17β-hydroxysteroid-dehydrogenases, method of preparation and use thereof” (USTAV ORGANICKE CHEMIE A BIOCHEMIE AV CR, V.V.I., priority 2016, dated 2020).

Tested on: T-47D ER+ cells
Conditions: Laplante et al. 2008; cited from earlier work

Which “reduction of proliferation induced by the physiological level of E1” value does the source give for C[C@]12CC[C@@H]3c4ccc(O)cc4CC[C@H]3[C@@H]1C[C@H](Cc1cccc(C(N)=O)c1)[C@@H]2O [Compound E2B, 16β-m-carbamoylbenzyl-E2] here?
Its value is 62%.
